Experimental data: ChEMBL document CHEMBL1138864, “Synthesis of novel caspase inhibitors for characterization of the active caspase proteome in vitro and in vivo” (J Med Chem, 2006)
Calls of active or inactive are those of the source. The rule behind the calls is not given here.

Experiments:
Jurkat [1] = assay: Inhibition of etoposide-induced apoptosis in human Jurkat T cells at 1 uM; type: functional, cell-based
Jurkat [2] = assay: Inhibition of etoposide-induced apoptosis in human Jurkat T cells at 10 uM; type: functional, cell-based

Question: Which Activity (Jurkat [1]) does the source give for Cc1cccc(C)c1C(=O)OCC(=O)[C@H](CC(=O)O)NC(=O)[C@H](CCCCNc1ccc([N+](=O)[O-])cc1[N+](=O)[O-])NC(=O)[C@H](CCC(=O)O)NC(=O)OCc1ccccc1 here?
Answer: Its Activity is “Active”.

Question: And the Activity (Jurkat [2])?
Answer: Its Activity is “Active”.
